Read-outs that look alike come from different tables or passages of the source.
How the values were obtained:
Assay in all cases: Test C pre-/postemergence greenhouse test, plant response rating 0-100
Type in all cases: in vivo
[1] = tested on: Italian ryegrass (Lolium multiflorum); details: Lolium multiflorum; for pest or weed control at 62 g/ha: 62 g ai/ha; for pest or weed control at 125 g/ha: 125 g ai/ha; for pest or weed control at 250 g/ha: 250 g ai/ha
Procedure, shortened: (§1)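 Greenhouse test. Preemergence: seed in loam:sand, sprayed with formulated chemical (solvent + surfactant). Postemergence: 1–4 leaf plants, 2–18 cm, peat-based potting medium. Hold 13–15 d; score visually, 0 (none) to 100 (complete control); dash = not tested.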

corn (Zea mays) = details: Zea mays; for Corn plant response rating (crop injury, 0 = no effect, 100 = complete kill) at 250 g/ha: 250 g ai/ha
Procedure, shortened: as §1

[2] = tested on: galium (catchweed bedstraw, Galium aparine); details: Galium; for pest or weed control at 62 g/ha: 62 g ai/ha; for pest or weed control at 125 g/ha: 125 g ai/ha; for pest or weed control at 250 g/ha: 250 g ai/ha
Procedure, shortened: as §1

[3] = tested on: giant foxtail (Setaria faberii); details: Setaria faberi; for pest or weed control at 62 g/ha: 62 g ai/ha; for pest or weed control at 125 g/ha: 125 g ai/ha; for pest or weed control at 250 g/ha: 250 g ai/ha
Procedure, shortened: as §1

[4] = tested on: johnsongrass (Sorghum halepense); details: Sorghum halepense; for pest or weed control at 62 g/ha: 62 g ai/ha; for pest or weed control at 125 g/ha: 125 g ai/ha; for pest or weed control at 250 g/ha: 250 g ai/ha
Procedure, shortened: as §1

[5] = tested on: lambsquarters (Chenopodium album); details: Chenopodium album; for pest or weed control at 62 g/ha: 62 g ai/ha; for pest or weed control at 125 g/ha: 125 g ai/ha; for pest or weed control at 250 g/ha: 250 g ai/ha
Procedure, shortened: as §1

[6] = tested on: large (Lg) crabgrass (Digitaria sanguinalis); details: Digitaria sanguinalis; for pest or weed control at 62 g/ha: 62 g ai/ha; for pest or weed control at 125 g/ha: 125 g ai/ha; for pest or weed control at 250 g/ha: 250 g ai/ha
Procedure, shortened: as §1

[7] = tested on: morningglory (Ipomoea coccinea); details: Ipomoea; for pest or weed control at 62 g/ha: 62 g ai/ha; for pest or weed control at 125 g/ha: 125 g ai/ha; for pest or weed control at 250 g/ha: 250 g ai/ha
Procedure, shortened: as §1

[8] = tested on: pigweed (Amaranthus retroflexus); details: Amaranthus retroflexus; for pest or weed control at 62 g/ha: 62 g ai/ha; for pest or weed control at 125 g/ha: 125 g ai/ha; for pest or weed control at 250 g/ha: 250 g ai/ha
Procedure, shortened: as §1

soybean (Glycine max) = details: Glycine max; for plant injury at 62 g/ha: 62 g ai/ha; for plant injury at 125 g/ha: 125 g ai/ha; for plant injury at 250 g/ha: 250 g ai/ha
Procedure, shortened: as §1

[9] = tested on: velvetleaf (Abutilon theophrasti); details: Abutilon theophrasti; for pest or weed control at 62 g/ha: 62 g ai/ha; for pest or weed control at 125 g/ha: 125 g ai/ha; for pest or weed control at 250 g/ha: 250 g ai/ha
Procedure, shortened: as §1

[10] = tested on: winter wheat (Triticum aestivum); details: Triticum aestivum; for plant injury at 62 g/ha: 62 g ai/ha; for plant injury at 125 g/ha: 125 g ai/ha; for plant injury at 250 g/ha: 250 g ai/ha
Procedure, shortened: as §1

[11] = tested on: yellow nutsedge (Cyperus esculentus); details: Cyperus; for pest or weed control at 62 g/ha: 62 g ai/ha; for pest or weed control at 125 g/ha: 125 g ai/ha; for pest or weed control at 250 g/ha: 250 g ai/ha
Procedure, shortened: as §1

[12] = post-emergence, Postemergence, read-out: Plant response rating (0 to 100), Ryegrass, Italian
[13] = post-emergence, Postemergence, scale 0 to 100
[14] = pre-emergence, Preemergence, read-out: Plant response rating, Ryegrass, Italian
[15] = pre-emergence, Preemergence, 500 g ai/ha
[16] = post-emergence, Postemergence, read-out: Plant response rating (0 to 100), Galium
[17] = pre-emergence, Preemergence, read-out: Plant response rating, Galium
[18] = post-emergence, Postemergence, read-out: Plant response rating (0 to 100), Foxtail, Giant
[19] = pre-emergence, Preemergence, read-out: Plant response rating, Foxtail, Giant
[20] = post-emergence, Postemergence, read-out: Plant response rating (0 to 100), Johnsongrass
[21] = pre-emergence, Preemergence, read-out: Plant response rating, Johnsongrass
[22] = post-emergence, Postemergence, read-out: Plant response rating (0 to 100), Lambsquarters
[23] = pre-emergence, Preemergence, read-out: Plant response rating, Lambsquarters
[24] = post-emergence, Postemergence, read-out: Plant response rating (0 to 100), Crabgrass, Large
[25] = pre-emergence, Preemergence, read-out: Plant response rating, Crabgrass, Large
[26] = post-emergence, Postemergence, read-out: Plant response rating (0 to 100), Morningglory
[27] = pre-emergence, Preemergence, read-out: Plant response rating, Morningglory
[28] = post-emergence, Postemergence, read-out: Plant response rating (0 to 100), Pigweed
[29] = pre-emergence, Preemergence, read-out: Plant response rating, Pigweed
[30] = post-emergence, Postemergence, read-out: Plant response rating (0 to 100), Soybean
[31] = pre-emergence, Preemergence, read-out: Plant response rating, Soybean
[32] = post-emergence, Postemergence, read-out: Plant response rating (0 to 100), Velvetleaf
[33] = pre-emergence, Preemergence, read-out: Plant response rating, Velvetleaf
[34] = post-emergence, Postemergence, read-out: Plant response rating (0 to 100), Wheat
[35] = pre-emergence, Preemergence, read-out: Plant response rating, Wheat
[36] = post-emergence, Postemergence, read-out: Plant response rating (0 to 100), Nutsedge, Yellow
[37] = pre-emergence, Preemergence, read-out: Plant response rating, Nutsedge, Yellow

## Clc1cc(Cl)cc(-c2n[nH]cc2C(=NN2CCCC2)c2ccccc2)c1 [Compound 30, N-[[3-(3,5-dichlorophenyl)-1H-pyrazol-4-yl]phenylmethylene]-1-pyrrolidinamine]
[1]; [12]
  pest or weed control at 62 g/ha: 0%
  pest or weed control at 125 g/ha: 0%
[1]; [13]
  pest or weed control at 250 g/ha: 0%
[1]; [14]
  pest or weed control at 62 g/ha: 0%
  pest or weed control at 125 g/ha: 0%
[1]; pre-emergence, Preemergence
  pest or weed control at 250 g/ha: 0%
[1]; [15]
  pest or weed control at 500 g/ha: 0%
Corn (Zea mays); post-emergence, Postemergence, 31 g ai/ha
  plant injury at 31 g/ha: 0%
Corn (Zea mays); post-emergence, Postemergence, 62 g ai/ha
  plant injury at 62 g/ha: 0%
Corn (Zea mays); post-emergence, Postemergence, 125 g ai/ha
  plant injury at 125 g/ha: 0%
Corn (Zea mays); [13]
  Corn plant response rating (crop injury, 0 = no effect, 100 = complete kill) at 250 g/ha: 0%
Corn (Zea mays); pre-emergence, Preemergence, 62 g ai/ha
  Corn plant response rating (crop injury, 0 = no effect, 100 = complete kill) at 62 g/ha: 0%
Corn (Zea mays); pre-emergence, Preemergence, 125 g ai/ha
  Corn plant response rating (crop injury, 0 = no effect, 100 = complete kill) at 125 g/ha: 0%
Corn (Zea mays); pre-emergence, Preemergence
  Corn plant response rating (crop injury, 0 = no effect, 100 = complete kill) at 250 g/ha: 0%
Corn (Zea mays); [15]
  Corn plant response rating (crop injury, 0 = no effect, 100 = complete kill) at 500 g/ha: 0%
[2]; post-emergence, Postemergence, 31 g ai/ha, read-out: Plant response rating (0 to 100), Galium
  pest or weed control at 31 g/ha: 0%
[2]; [16]
  pest or weed control at 62 g/ha: 0%
  pest or weed control at 125 g/ha: 5%
[2]; [13]
  pest or weed control at 250 g/ha: 5%
[2]; [17]
  pest or weed control at 62 g/ha: 0%
  pest or weed control at 125 g/ha: 0%
[2]; pre-emergence, Preemergence
  pest or weed control at 250 g/ha: 5%
[2]; [15]
  pest or weed control at 500 g/ha: 10%
[3]; post-emergence, Postemergence, 31 g ai/ha, read-out: Plant response rating (0 to 100), Foxtail, Giant
  pest or weed control at 31 g/ha: 0%
[3]; [18]
  pest or weed control at 62 g/ha: 0%
  pest or weed control at 125 g/ha: 0%
[3]; [13]
  pest or weed control at 250 g/ha: 0%
[3]; [19]
  pest or weed control at 62 g/ha: 0%
  pest or weed control at 125 g/ha: 0%
[3]; pre-emergence, Preemergence
  pest or weed control at 250 g/ha: 0%
[3]; [15]
  pest or weed control at 500 g/ha: 0%
[4]; [20]
  pest or weed control at 62 g/ha: 0%
  pest or weed control at 125 g/ha: 0%
[4]; [13]
  pest or weed control at 250 g/ha: 0%
[4]; [21]
  pest or weed control at 62 g/ha: 0%
  pest or weed control at 125 g/ha: 0%
[4]; pre-emergence, Preemergence
  pest or weed control at 250 g/ha: 0%
[4]; [15]
  pest or weed control at 500 g/ha: 0%
[5]; [22]
  pest or weed control at 62 g/ha: 60%
  pest or weed control at 125 g/ha: 80%
[5]; [13]
  pest or weed control at 250 g/ha: 100%
[5]; [23]
  pest or weed control at 62 g/ha: 100%
  pest or weed control at 125 g/ha: 100%
[5]; pre-emergence, Preemergence
  pest or weed control at 250 g/ha: 100%
[5]; [15]
  pest or weed control at 500 g/ha: 100%
[6]; post-emergence, Postemergence, 31 g ai/ha, read-out: Plant response rating (0 to 100), Crabgrass, Large
  pest or weed control at 31 g/ha: 0%
[6]; [24]
  pest or weed control at 62 g/ha: 0%
  pest or weed control at 125 g/ha: 0%
[6]; [13]
  pest or weed control at 250 g/ha: 0%
[6]; [25]
  pest or weed control at 62 g/ha: 0%
  pest or weed control at 125 g/ha: 0%
[6]; pre-emergence, Preemergence
  pest or weed control at 250 g/ha: 0%
[6]; [15]
  pest or weed control at 500 g/ha: 0%
[7]; [26]
  pest or weed control at 62 g/ha: 0%
  pest or weed control at 125 g/ha: 0%
[7]; [13]
  pest or weed control at 250 g/ha: 0%
[7]; [27]
  pest or weed control at 62 g/ha: 10%
  pest or weed control at 125 g/ha: 15%
[7]; pre-emergence, Preemergence
  pest or weed control at 250 g/ha: 15%
[7]; [15]
  pest or weed control at 500 g/ha: 15%
[8]; [28]
  pest or weed control at 62 g/ha: 100%
  pest or weed control at 125 g/ha: 100%
[8]; [13]
  pest or weed control at 250 g/ha: 100%
[8]; [29]
  pest or weed control at 62 g/ha: 60%
  pest or weed control at 125 g/ha: 98%
[8]; pre-emergence, Preemergence
  pest or weed control at 250 g/ha: 100%
[8]; [15]
  pest or weed control at 500 g/ha: 100%
Soybean (Glycine max); [30]
  plant injury at 62 g/ha: 0%
  plant injury at 125 g/ha: 0%
Soybean (Glycine max); [13]
  plant injury at 250 g/ha: 0%
Soybean (Glycine max); [31]
  plant injury at 62 g/ha: 0%
  plant injury at 125 g/ha: 0%
Soybean (Glycine max); pre-emergence, Preemergence
  plant injury at 250 g/ha: 0%
Soybean (Glycine max); [15]
  plant injury at 500 g/ha: 0%
[9]; [32]
  pest or weed control at 62 g/ha: 85%
  pest or weed control at 125 g/ha: 85%
[9]; [13]
  pest or weed control at 250 g/ha: 98%
[9]; [33]
  pest or weed control at 62 g/ha: 65%
  pest or weed control at 125 g/ha: 70%
[9]; pre-emergence, Preemergence
  pest or weed control at 250 g/ha: 75%
[9]; [15]
  pest or weed control at 500 g/ha: 100%
[10]; [34]
  plant injury at 62 g/ha: 0%
  plant injury at 125 g/ha: 0%
[10]; [13]
  plant injury at 250 g/ha: 0%
[10]; [35]
  plant injury at 62 g/ha: 0%
  plant injury at 125 g/ha: 0%
[10]; pre-emergence, Preemergence
  plant injury at 250 g/ha: 0%
[11]; [36]
  pest or weed control at 62 g/ha: 0%
  pest or weed control at 125 g/ha: 0%
[11]; [13]
  pest or weed control at 250 g/ha: 0%
[11]; [37]
  pest or weed control at 62 g/ha: 0%
  pest or weed control at 125 g/ha: 0%
[11]; pre-emergence, Preemergence
  pest or weed control at 250 g/ha: 0%
[11]; [15]
  pest or weed control at 500 g/ha: 0%
